Reference: ChEMBL document CHEMBL1149789, “SAR and QSAR studies: modelling of new DAPY derivatives” (Eur J Med Chem, 2008)

What was measured:
[1] = test system: Human immunodeficiency virus; experiment: Inhibition of HIV reverse transcriptase
[2] = Partition coefficient, log P of the compound; assay type: physicochemical; details: octanol/water

Row | SMILES | EC50 [1] [nM] | logP [2] | logP ([2]; read-out: logP)
1 | Cc1cc(C#N)cc(C)c1Oc1nc(Nc2ccc(C#N)cc2)ncc1[N+](=O)[O-] | 18 | -0.98 | –
2 | Cc1cc(C)c(Nc2nc(Nc3ccc(C#N)cc3)ncc2C)c(C)c1 | 1.7 | – | 2.17
3 | Cc1cc(Br)cc(C)c1Oc1ccnc(Nc2ccc(C#N)cc2)n1 | 2.9 | – | 1.97
4 | Cc1cc(C#N)cc(C)c1Nc1nc(Nc2ccc(C#N)cc2)ncc1Br | 0.4 | – | 1.64
5 | Cc1cc(Br)cc(C)c1Sc1ccnc(Nc2ccc(C#N)cc2)n1 | 5.7 | – | 2.31
6 | Cc1cnc(Nc2ccc(C#N)cc2)nc1Nc1c(C)cc(C#N)cc1C | 0.8 | – | 1.74
7 | Cc1cc(Cl)cc(C)c1Nc1ccnc(Nc2ccc(C#N)cc2)n1 | 2.1 | – | 1.52
8 | Cc1cc(C#N)cc(C)c1Oc1nc(Nc2ccc(C#N)cc2)ncc1Br | 1.4 | – | 1.82
9 | Cc1cc(C#N)cc(C)c1Oc1nc(Nc2ccc(C#N)cc2)nc(N)c1Br [ETRAVIRINE] | 1.4 | – | 1.82
10 | Cc1cc(Cl)cc(Cl)c1Nc1ccnc(Nc2ccc(C#N)cc2)n1 | 1 | – | 1.14
11 | Cc1cc(C#N)cc(C)c1Nc1ccnc(Nc2ccc(C#N)cc2)n1 | 0.4 | – | 1.47
12 | Cc1cc(C#N)cc(C)c1Oc1ccnc(Nc2ccc(C#N)cc2)n1 | 1.1 | – | 1.64
13 | Cc1cc(C)c(Sc2ccnc(Nc3ccc(C#N)cc3)n2)c(C)c1 | 3.6 | – | 2.42
14 | Cc1cc(C)c(Nc2nc(Nc3ccc(C#N)cc3)ncc2Br)c(C)c1 | 5.5 | – | 2.07
15 | Cc1cc(C#N)cc(C)c1Oc1nc(Nc2ccc(C#N)cc2)ncc1Cl | 1.4 | – | 1.54
16 | Cc1cc(C)c(Oc2ccnc(Nc3ccc(C#N)cc3)n2)c(C)c1 | 2.9 | – | 2.07

Row | SMILES | EC50 [1] [nM] | logP [2] | logP ([2]; read-out: logP)
17 | C#Cc1cnc(Nc2ccc(C#N)cc2)nc1Nc1c(C)cc(C)cc1C | – | – | 1.89
18 | CC(=O)Nc1cnc(Nc2ccc(C#N)cc2)nc1Oc1c(C)cc(C#N)cc1C | – | – | -0.12
19 | N#Cc1ccc(Nc2nccc(Nc3c(Cl)cc(Cl)cc3Cl)n2)cc1 | 0.7 | – | 0.77
20 | Cc1cc(C#N)cc(C)c1Oc1nc(Nc2ccc(C#N)cc2)ncc1N | 1 | – | 0.05
21 | C#Cc1cc(C)c(Oc2ccnc(Nc3ccc(C#N)cc3)n2)c(C)c1 | 5.5 | – | 1.79
22 | Cc1cc(C#N)cc(C)c1Nc1nc(Nc2ccc(C#N)cc2)ncc1C#N | 0.5 | – | 1.31
23 | Cc1cc(C#N)cc(C)c1Nc1nc(Nc2ccc(C#N)cc2)ncc1Cl | 1.2 | – | 1.37
24 | C=Cc1cnc(Nc2ccc(C#N)cc2)nc1Nc1c(C)cc(C#N)cc1C | 2.5 | – | 2.36
25 | Cc1cc(Br)cc(C)c1Nc1ccnc(Nc2ccc(C#N)cc2)n1 | 2.3 | – | 1.79
26 | Cc1cccc(C)c1Nc1ccnc(Nc2ccc(C#N)cc2)n1 | 0.7 | – | 1.74
27 | Cc1cc(C)c(Nc2nc(Nc3ccc(C#N)cc3)ncc2C#N)c(C)c1 | 1 | – | 1.74
28 | Cc1cc(Br)c(Nc2ccnc(Nc3ccc(C#N)cc3)n2)c(Br)c1 | 0.7 | – | 1.69
29 | Cc1cc(C)c(Nc2ccnc(Nc3ccc(C#N)cc3)n2)c(C)c1 [DAPIVIRINE] | 1 | – | 1.9
30 | N#Cc1ccc(Nc2nccc(Nc3c(Br)cc(F)cc3Br)n2)cc1 | 0.6 | – | 0.94
31 | Cc1cc(C)c(Nc2nc(Nc3ccc(C#N)cc3)ncc2Cl)c(C)c1 | 2.7 | – | 1.8
